How the values were obtained:
Assay in all cases: viability relative to DMSO control (fraction); higher = less drug effect (more viable cells)
Details in all cases: 48 h
[1] = system: primary ALL patient cells (S088)
Summary of the method: (§1)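 Primary mononuclear tumour cells (Ficoll-isolated from blood or bone marrow, or processed lymph node; fresh or cryopreserved) were plated at 4 × 10^4 cells per well in 384-well plates with pre-plated compounds at five concentrations, one well each. Medium was RPMI-1640 with penicillin/streptomycin, L-glutamine and human serum, at 37 °C and 5% CO2 for 48 h. Viability was read as CellTiter-Glo luminescence relative to the median of 16 inner DMSO wells.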

[2] = system: primary AML patient cells (S019)
Summary of the method: as §1

[3] = system: primary AML patient cells (S089)
Summary of the method: as §1

[4] = system: primary AML patient cells (S017)
Summary of the method: as §1

[5] = system: primary ALL patient cells (S048)
Summary of the method: as §1

[6] = system: primary AML patient cells (S021)
Summary of the method: as §1

[7] = system: primary AML patient cells (S055)
Summary of the method: as §1

[8] = system: primary B-PLL patient cells (S016)
Summary of the method: as §1

[9] = system: primary AML patient cells (S002)
Summary of the method: as §1

[10] = system: primary AML patient cells (S091)
Summary of the method: as §1

[11] = system: primary MCL patient cells (S053)
Summary of the method: as §1

[12] = system: primary AML patient cells (S009)
Summary of the method: as §1

[13] = system: primary AML patient cells (S079)
Summary of the method: as §1

[14] = system: primary AML patient cells (S025)
Summary of the method: as §1

[15] = system: primary DLBCL patient cells (S082)
Summary of the method: as §1

[16] = system: primary AML patient cells (S060)
Summary of the method: as §1

[17] = system: primary FL patient cells (S087)
Summary of the method: as §1

[18] = system: primary AML patient cells (S071)
Summary of the method: as §1

[19] = system: primary AML patient cells (S072)
Summary of the method: as §1

[20] = system: primary FL patient cells (S022)
Summary of the method: as §1

## CC(C)(C)C[C@@H]1N[C@@H](C(=O)N[C@H]2CC[C@H](O)CC2)[C@H](c2cccc(Cl)c2F)[C@]12C(=O)Nc1cc(Cl)ccc12 [MI-773]
[1]; 0.008 µM
  viability: 1
[1]; 0.04 µM
  viability: 0.88
[1]; 0.2 µM
  viability: 0.701
[1]; 1 µM
  viability: 0.366
[1]; 5 µM
  viability: 0.151
[2]; 0.008 µM
  viability: 1.34
[2]; 0.04 µM
  viability: 1.23
[2]; 0.2 µM
  viability: 1.19
[2]; 1 µM
  viability: 0.689
[2]; 5 µM
  viability: 0.343
[3]; 0.008 µM
  viability: 0.993
[3]; 0.04 µM
  viability: 0.973
[3]; 0.2 µM
  viability: 0.938
[3]; 1 µM
  viability: 0.842
[3]; 5 µM
  viability: 0.493
[4]; 0.008 µM
  viability: 1.06
[4]; 0.04 µM
  viability: 0.896
[4]; 0.2 µM
  viability: 0.806
[4]; 1 µM
  viability: 0.877
[4]; 5 µM
  viability: 0.834
[5]; 0.008 µM
  viability: 1.01
[5]; 0.04 µM
  viability: 0.992
[5]; 0.2 µM
  viability: 0.799
[5]; 1 µM
  viability: 0.472
[5]; 5 µM
  viability: 0.0627
[6]; 0.008 µM
  viability: 1
[6]; 0.04 µM
  viability: 0.966
[6]; 0.2 µM
  viability: 0.648
[6]; 1 µM
  viability: 0.46
[6]; 5 µM
  viability: 0.215
[7]; 0.008 µM
  viability: 1.01
[7]; 0.04 µM
  viability: 1.01
[7]; 0.2 µM
  viability: 0.997
[7]; 1 µM
  viability: 0.919
[7]; 5 µM
  viability: 0.409
[8]; 0.008 µM
  viability: 0.954
[8]; 0.04 µM
  viability: 0.858
[8]; 0.2 µM
  viability: 0.771
[8]; 1 µM
  viability: 0.568
[8]; 5 µM
  viability: 0.0958
[9]; 0.008 µM
  viability: 0.994
[9]; 0.04 µM
  viability: 0.926
[9]; 0.2 µM
  viability: 0.688
[9]; 1 µM
  viability: 0.413
[9]; 5 µM
  viability: 0.253
[10]; 0.008 µM
  viability: 0.979
[10]; 0.04 µM
  viability: 0.781
[10]; 0.2 µM
  viability: 0.587
[10]; 1 µM
  viability: 0.428
[10]; 5 µM
  viability: 0.321
[11]; 0.008 µM
  viability: 1.11
[11]; 0.04 µM
  viability: 0.915
[11]; 0.2 µM
  viability: 0.755
[11]; 1 µM
  viability: 0.424
[11]; 5 µM
  viability: 0.347
[12]; 0.008 µM
  viability: 0.894
[12]; 0.04 µM
  viability: 0.755
[12]; 0.2 µM
  viability: 0.698
[12]; 1 µM
  viability: 0.56
[12]; 5 µM
  viability: 0.524
[13]; 0.008 µM
  viability: 1.01
[13]; 0.04 µM
  viability: 1.01
[13]; 0.2 µM
  viability: 1.01
[13]; 1 µM
  viability: 0.901
[13]; 5 µM
  viability: 0.636
[14]; 0.008 µM
  viability: 1.12
[14]; 0.04 µM
  viability: 0.901
[14]; 0.2 µM
  viability: 0.818
[14]; 1 µM
  viability: 0.421
[14]; 5 µM
  viability: 0.202
[15]; 0.008 µM
  viability: 1.07
[15]; 0.04 µM
  viability: 0.971
[15]; 0.2 µM
  viability: 1.14
[15]; 1 µM
  viability: 0.98
[15]; 5 µM
  viability: 1.03
[16]; 0.008 µM
  viability: 1.06
[16]; 0.04 µM
  viability: 0.997
[16]; 0.2 µM
  viability: 1.09
[16]; 1 µM
  viability: 0.99
[16]; 5 µM
  viability: 1.09
[17]; 0.008 µM
  viability: 1
[17]; 0.04 µM
  viability: 0.99
[17]; 0.2 µM
  viability: 0.937
[17]; 1 µM
  viability: 0.849
[17]; 5 µM
  viability: 0.694
[18]; 0.008 µM
  viability: 0.991
[18]; 0.04 µM
  viability: 0.732
[18]; 0.2 µM
  viability: 0.32
[18]; 1 µM
  viability: 0.132
[18]; 5 µM
  viability: 0.0874
[19]; 0.008 µM
  viability: 1.06
[19]; 0.04 µM
  viability: 0.843
[19]; 0.2 µM
  viability: 0.934
[19]; 1 µM
  viability: 0.775
[19]; 5 µM
  viability: 0.762
[20]; 0.008 µM
  viability: 1.02
[20]; 0.04 µM
  viability: 0.934
[20]; 0.2 µM
  viability: 0.957
[20]; 1 µM
  viability: 0.947
[20]; 5 µM
  viability: 0.722

Source: the supplement of paper PMC10733146
